In experiment [1] the test system is EVSA-T (human breast carcinoma). Put plainly: Anti-proliferative activity, Alamar Blue assay, EVSA-T. To be noted: Homo sapiens. Format: cell-based.
For experiment [2], the target named is BIR3 domain of human XIAP (residues 252-350) (Homo sapiens (Human), UniProt P98170). Put plainly: XIAP in vitro competitive displacement binding assay (fluorescence polarization). The following applies: for IC50: read-out: IC50 or PI Xiap: IC50; for inhibition at 0.04 µM: 1 h, read-out: IC50 or PI Xiap: PI. On the technique in general: Polarisation of emitted light reports the rotation of a fluorescent probe.

Experiment [3] concerns the target BIR3 domain of human cIAP-1 (residues 267-363) (Homo sapiens (Human), UniProt Q13490). Nature of the experiment: cIAP-1 in vitro competitive displacement binding assay (fluorescence polarization; Probe A AVPIK(5&6FAM)-amide or Probe B AbuRPFK(5&6FAM)-amide). To be noted: for inhibition at […]: 3 h, read-out: IC50 or PI cIAP1: PI.
The mark [4] stands for this setting: EVSA-T, 72 hours, Alamar Blue, read-out: EVSA-T prolif (EC50).
Where [5] appears, read: Probe B AbuRPFK(5&6FAM)-amide, read-out: IC50 or PI cIAP1: IC50.
Where [6] appears, read: EVSA-T, 72 h, read-out: EVSA-T prolif (EC50).
[7] abbreviates: read-out: IC50 or PI cIAP1: IC50.

Structures can show the parent of a compound that is named as a salt. Where two headings read alike, the source gives them in different places. A value given as a limit tells only on which side of the number the result lay.

For the molecule `CCC1(CC)CN(C(=O)CN2C[C@@H](C)NC[C@@H]2C(=O)N2CCOCC2)c2cc(Cl)ccc21` [Example 135, 1-(6-Chloro-3,3-diethyl-2,3-dihydro-1H-indol-1-yl)-2-[(2R,5R)-5-methyl-2-[(morpholin-4-yl)carbonyl]piperazin-1-yl]ethan-1-one hydrochloride], in experiment [1] (setting [4]), the EC50 (commonly the concentration giving half of the maximal effect) is 1600 nM. The values for the IC50 in experiment [2] and in experiment [3] (setting [5]) were 400 nM and 79 nM, respectively.
In the case of `COC[C@H]1CN[C@H](C)CN1CC(=O)N1CC(C)(C)c2cnc(-c3ccoc3)cc21` [Example 145, 1-[6-(Furan-3-yl)-3,3-dimethyl-1H,2H,3H-pyrrolo[3,2-c]pyridin-1-yl]-2-[(2R,5R)-2-(methoxymethyl)-5-methylpiperazin-1-yl]ethan-1-one dihydrochloride], the EC50 in experiment [1] (setting [6]) worked out at 9800 nM. Besides, the IC50 (usually the midpoint of a concentration-inhibition curve) was 1000 nM in experiment [2] and 180 nM in experiment [3] (setting [7]).
For the molecule `C[C@@H]1CN(CC(=O)N2CC(C)(C)c3cnc(C(F)(F)c4ccccc4)cc32)[C@@H](CN2CCOCC2)CN1` [Example 224, 1-{6-[Difluoro(phenyl)methyl]-3,3-dimethyl-1H,2H,3H-pyrrolo[3,2-c]pyridin-1-yl}-2-[(2R,5R)-5-methyl-2-(morpholin-4-ylmethyl)piperazin-1-yl]ethan-1-one dihydrochloride], the EC50 in experiment [1] (setting [4]) was 19 nM. Also, the inhibition at 0.04 µM in experiment [2] turned out to be 77%. Also, the inhibition at […] in experiment [3] was 83%.
For the molecule `CNS(=O)(=O)c1ccc2c(c1)N(C(=O)CN1C[C@@H](C)NC[C@@H]1COC)CC2(C)C` [Example 61, 1-[2-((2R,5R)-2-Methoxymethyl-5-methyl-piperazin-1-yl)-acetyl]-3,3-dimethyl-2,3-dihydro-1H-indole-6-sulfonic acid methylamide dihydrochloride salt], the inhibition at 10 µM in experiment [1] (EVSA-T, read-out: EVSA-T prolif: % inhibition) worked out at 0%. For the same molecule, the IC50 in experiment [2] was determined as 220 nM; in experiment [3] (setting [7]) it was 1600 nM.
Consider `CC[C@@H]1COCCN1C[C@H]1CN[C@H](C)CN1CC(=O)N1CC(C)(C)c2ncc(C(C)(F)F)cc21` [Example 253, 1-[6-(1,1-Difluoroethyl)-3,3-dimethyl-1H,2H,3H-pyrrolo[3,2-b]pyridin-1-yl]-2-[(2R,5R)-2-{[(3R)-3-ethylmorpholin-4-yl]methyl}-5-methylpiperazin-1-yl]ethan-1-one dihydrochloride], for which the EC50 in experiment [1] (setting [6]) was 51 nM. Also, the IC50 in experiment [2] is 50 nM; in experiment [3] it was below 1000 nM; in experiment [3] (setting [7]), 17 nM.
With `C[C@@H]1CN(CC(=O)N2CC(C)(C)c3ncc(Cc4ccc(F)cc4)cc32)[C@@H](CN2CCOCC2)CN1` [Example 234, 1-{6-[(4-Fluorophenyl)methyl]-3,3-dimethyl-1H,2H,3H-pyrrolo[3,2-b]pyridin-1-yl}-2-[(2R,5R)-5-methyl-2-(morpholin-4-ylmethyl)piperazin-1-yl]ethan-1-one dihydrochloride], in experiment [1] (setting [6]), the EC50 came to 9.6 nM. The IC50 in experiment [2] stood at 74 nM.
On to `CCCC(F)(F)c1cnc2c(c1)N(C(=O)CN1C[C@@H](C)NC[C@@H]1CN1C[C@@H](C)O[C@@H](C)C1)CC2(C)C` [Example 246, 1-[6-(1,1-Difluorobutyl)-3,3-dimethyl-1H,2H,3H-pyrrolo[3,2-b]pyridin-1-yl]-2-[(2R,5R)-2-{[(2R,6S)-2,6-dimethylmorpholin-4-yl]methyl}-5-methylpiperazin-1-yl]ethan-1-one dihydrochloride], for which the EC50 in experiment [1] (setting [6]) amounted to 31 nM. Also, the IC50 in experiment [2] was 43 nM. The inhibition at […] in experiment [3] was found to be 76%.
For the molecule `Cc1cnn(C[C@H]2CN[C@H](C)CN2CC(=O)N2CC(C)(C)c3cnc(Cc4ccccc4)cc32)c1` [Example 147, 1-{6-Benzyl-3,3-dimethyl-1H,2H,3H-pyrrolo[3,2-c]pyridin-1-yl}-2-[(2R,5R)-5-methyl-2-[(4-methyl-1H-pyrazol-1-yl)methyl]piperazin-1-yl]ethan-1-one hydrochloride], the EC50 in experiment [1] (setting [6]) is 110 nM. Moreover, the inhibition at 0.04 µM in experiment [2] (@ 0.04 μM) was determined as 49%.
With `C[C@@H]1CN(CC(=O)N2CC(C)(C)c3cnc(Cc4ccc(F)cc4F)cc32)[C@@H](CN2CCCCC2=O)CN1` [Example 192, 1-{[(2R,5R)-1-(2-{6-[(2,4-Difluorophenyl)methyl]-3,3-dimethyl-1H,2H,3H-pyrrolo[3,2-c]pyridin-1-yl}-2-oxoethyl)-5-methylpiperazin-2-yl]methyl}piperidin-2-one hydrochloride], in experiment [1] (setting [4]), the EC50 turned out to be 8.8 nM. In experiment [2], the IC50 is 58 nM. Besides, the inhibition at […] in experiment [3] (Probe B, @ 0.012 μM) worked out at 95%.
As for `C[C@@H]1CN(CC(=O)N2CC(C)(C)c3cnc(Cc4ccc(F)cc4F)cc32)[C@@H](Cn2ccncc2=O)CN1` [Example 195, 1-{[(2R,5R)-1-(2-{6-[(2,4-Difluorophenyl)methyl]-3,3-dimethyl-1H,2H,3H-pyrrolo[3,2-c]pyridin-1-yl}-2-oxoethyl)-5-methylpiperazin-2-yl]methyl}-1,2-dihydropyrazin-2-one dihydrochloride], in experiment [1] (setting [6]), the EC50 turned out to be 36 nM. In addition, the IC50 in experiment [2] came out at 67 nM. Further, the inhibition at […] in experiment [3] came to 96%.
In the case of `C[C@@H]1CN(CC(=O)N2C[C@](C)(c3ccccc3)c3ccc(C#N)cc32)[C@@H](C(=O)N2CCOCC2)CN1` [Example 153, (3R)-3-Methyl-1-{2-[(2R,5R)-5-methyl-2-[(morpholin-4-yl)carbonyl]piperazin-1-yl]acetyl}-3-phenyl-2,3-dihydro-1H-indole-6-carbonitrile], in experiment [1] (setting [4]), the concentration for a half-maximal effect (EC50) was determined as 4000 nM. Besides, in experiment [2] (@ 0.04 μM), the inhibition at 0.04 µM came to 54%. In addition, the IC50 in experiment [3] (setting [5]) was found to be 160 nM.
For the molecule `C[C@@H]1CN(CC(=O)N2CC(C)(C)c3ncc(Cc4ccc(F)cc4F)cc32)[C@@H](CN2CC[C@H](F)C2)CN1` [Example 204, 1-{6-[(2,4-Difluorophenyl)methyl]-3,3-dimethyl-1H,2H,3H-pyrrolo[3,2-b]pyridin-1-yl}-2-[(2R,5R)-2-{[(3S)-3-fluoropyrrolidin-1-yl]methyl}-5-methylpiperazin-1-yl]ethan-1-one dihydrochloride], the EC50 in experiment [1] (setting [6]) worked out at 21 nM. The IC50 in experiment [2] was 110 nM. Moreover, the inhibition at […] in experiment [3] was determined as 91%.
Take `COC[C@H]1CN[C@H](C)CN1CC(=O)N1CC(C)(C)c2cnc(Oc3ccccc3)cc21` [Example 74, 1-(3,3-Dimethyl-6-phenoxy-2,3-dihydro-pyrrolo[3,2-c]pyridin-1-yl)-2-((2R,5R)-2-methoxymethyl-5-methyl-piperazin-1-yl)-ethanone hydrochloride salt]: the EC50 in experiment [1] (setting [4]) turned out to be 560 nM. For the same molecule, the concentration for half-maximal inhibition (IC50) in experiment [2] worked out at 390 nM; in experiment [3] (setting [5]), 99 nM.
Turning to `COC[C@H]1CN[C@H](C)CN1CC(=O)N1C[C@@](C)(c2cc(C)no2)c2ccc(Cc3ccccc3)cc21` [Example 175, 1-[(3S)-6-Benzyl-3-methyl-3-(3-methyl-1,2-oxazol-5-yl)-2,3-dihydro-1H-indol-1-yl]-2-[(2R,5R)-2-(methoxymethyl)-5-methylpiperazin-1-yl]ethan-1-one hydrochloride], in experiment [1] (setting [4]), the EC50 amounted to 200 nM. For the same molecule, the IC50 in experiment [2] was 110 nM; in experiment [3], below 1000 nM; in experiment [3] (setting [5]), 11 nM.
`CCCC(F)(F)c1cc2c(cn1)C(C)(C)CN2C(=O)CN1C[C@@H](C)NC[C@@H]1CN1CCOC[C@H]1C` [Example 252, 1-[6-(1,1-Difluorobutyl)-3,3-dimethyl-1H,2H,3H-pyrrolo[3,2-c]pyridin-1-yl]-2-[(2R,5R)-5-methyl-2-{[(3R)-3-methylmorpholin-4-yl]methyl}piperazin-1-yl]ethan-1-one diydrochloride]: the EC50 in experiment [1] (setting [4]) is 4 nM. Also, the inhibition at 0.04 µM in experiment [2] (@ 0.04 μM) was 72%. For the same molecule, the inhibition at […] in experiment [3] (Probe B, @ 0.012 μM) was found to be 91%.
For `C[C@@H]1CN(CC(=O)N2CC(C)(C)c3nnc(Cc4ccc(F)cc4F)cc32)[C@@H](CN2CCCC2=O)CN1` [Example 201, 1-{[(2R,5R)-1-(2-{3-[(2,4-Difluorophenyl)methyl]-7,7-dimethyl-5H,6H,7H-pyrrolo[3,2-c]pyridazin-5-yl}-2-oxoethyl)-5-methylpiperazin-2-yl]methyl}pyrrolidin-2-one hydrochloride], the EC50 in experiment [1] (setting [4]) is 5.2 nM. Also, the IC50 in experiment [2] was found to be 81 nM. The inhibition at […] in experiment [3] (Probe B, @ 0.012 μM) was 88%.
Regarding `C[C@@H]1CN(CC(=O)N2CC(C)(C)c3ncc(Cc4ccc(F)cc4F)cc32)[C@@H](CN2CCCC2=O)CN1` [Example 199, 1-{[(2R,5R)-1-(2-{6-[(2,4-Difluorophenyl)methyl]-3,3-dimethyl-1H,2H,3H-pyrrolo[3,2-b]pyridin-1-yl}-2-oxoethyl)-5-methylpiperazin-2-yl]methyl}pyrrolidin-2-one dihydrochloride], the EC50 in experiment [1] (setting [6]) turned out to be 5.6 nM. In addition, in experiment [2], the IC50 came to 63 nM.
For `COC[C@H]1CN[C@H](C)CN1CC(=O)N1C[C@](C)(c2ccccc2)c2ccc(C#N)cc21` [Example 140, (3R)-1-{2-[(2R,5R)-2-(Methoxymethyl)-5-methylpiperazin-1-yl]acetyl}-3-methyl-3-phenyl-2,3-dihydro-1H-indole-6-carbonitrile], the EC50 was below 10000 nM in experiment [1] (EVSA-T cell line, 72 hours, Alamar Blue, read-out: EC50, inhibition of cell growth) and 8600 nM in experiment [1] (setting [4]). In experiment [2], the IC50 was found to be 94 nM.
As to `COC[C@H]1CN[C@H](C)CN1CC(=O)N1CC(C)(c2ccccc2)c2ccc(C#N)cc21` (mixture of isomers) [Example 136, 1-{2-[(2R,5R)-2-(Methoxymethyl)-5-methylpiperazin-1-yl]acetyl}-3-methyl-3-phenyl-2,3-dihydro-1H-indole-6-carbonitrile], the EC50 in experiment [1] (setting [4]) amounted to 2800 nM. Besides, the IC50 in experiment [2] worked out at 110 nM.

The values above are taken from US9018214B2, “Bicyclic heterocycle compounds and their uses in therapy” (Astex Therapeutics Limited, priority 2011, dated 2015).
